# Data taken from patent US20240174696A1, “2,8-DIAZASPIRO[4.5]DECANE COMPOUNDS” (Genentech, Inc., priority 2021, published 2024).
# Counter-ions that a name gives are not always drawn.
# What was measured:
# [1] = target: Human LATS2 catalytic domain (Homo sapiens (Human), UniProt Q9NRM7); assay: LATS2 High ATP HTRF Assay; type: biochemical; conditions: no asterisk: LATS2 High ATP HTRF Assay, 5000 μM ATP, 0.05 nM LATS2
# Experimental: Human LATS2 catalytic domain which contains the amino acids G553-V1088 (accession NP_055387) was purified in-house. The LATS2 catalytic domain was co-purified with Mob1b (accession NP_775739). The LATS2 biochemical HTRF assay was performed using the HTRF KinEASE-STK S1 Kit (Cisbio, Cat #62ST1PEC), following the protocol from the manufacturer. Compounds were dispensed by the Echo Liquid Handler (Labcyte) into a white 384-well plate (PerkinElmer, Cat #6008289). 3 uL of 2×LATS2 enzyme solution was added to the compounds, following by a 10 minute incubation at room temperature. Then, 2×ATP and STK S1 peptide solution was added to initiate the one hour enzyme reaction at room temperature. The final condition of the reaction was 0.2 nM LATS2, 50 μM ATP, 0.5 μM STK S1 peptide in 50 mM HEPES pH7.2, 10 mM MgCl2, 0.1% BGG, 0.005% Brij-35, 1 mM DTT. The reaction was quenched by adding 6 uL of the detection mixture which contained Streptavidin XL665 and STK Antibody-Cryptate (Cisbio), incubate for 1 hour at room temperature. The HTRF (665 nm/620 nm) signal was read on the Envision plater reader (PerkinElmer). The IC50 values were determined by fitting the % inhibition with a nonlinear four-parameter logistical equation. The Ki values were calculated using the Cheng-Prusoff equation for a competitive inhibitor, IC50═Ki (1+S/Km)+M [E] with ATP Km for LATS2=105 μM.
# The LATS2 high ATP HTRF assay was performed using the same protocol as the Standard LATS2 HTRF assay. The final condition of the reaction was 0.05 nM LATS2, 5000 μM ATP, 0.5 μM STK S1 peptide in 50 mM HEPES pH7.2, 10 mM MgCl2, 0.1% BGG, 0.005% Brij-35, 1 mM DTT and the 2 hours enzyme reaction at room temperature.
# [2] = tested on: TAZ nuclear translocation in SW1990 cells; assay: TAZ Nuclear Translocation Assay; type: cell-based; conditions: Homo sapiens, 4 hours
# Experimental: The SW1990 cells (ATCC, CRL2172) were seeded at 5000 cells/well by adding 30 μL/well of cells in RPMI1640, 10% FBS, 2 mM glutamine culture media to a 384-well plate (Greiner 781091). The cells were incubated overnight at 37° C. Next day, test compounds were directly added to the cells using the Echo Liquid Handler (Labcyte), incubate at 37° C. for 4 hours. The cells were fixed with 4% paraformaldehyde and incubate for 20 minutes at room temperature. After washing three times with 100 μL PBS, 0.5% Triton X-100 was added to permeabilize the cells, incubate at room temperature for 5 minutes, following by washing the cells three times with PBS. 3% BSA was added to the cells, incubate for one hour at room temperature, following by washing three times with PBS. 50 μL of 1:750 diluted rabbit Anti-TAZ (Cell signaling D316D) in 3% BSA was added to the cells, incubate at 4° C. overnight. Next day, after washing the cells three times with PBS, 50 μL of 1:1250 diluted donkey anti-Rabbit, Alexa Fluor 488 (Invitrogen A21206) and 1:6250 diluted Hoechst 33342 (Molecular Probes H-21492) in 3% BSA was added to the cells, incubate at room temperature for one hour. The cells were washed three times with PBS, then image with the CellInsight CX7 High-Content Imager. The ratio of nuclear mean fluorescence intensity and cytoplasmic ring region mean fluorescence intensity was calculated. The % inhibition was normalized using DMSO as 0% inhibition and an inhibitor control as 100% inhibition. The EC50 values were calculated by fitting the % inhibition with a nonlinear four-parameter logistical equation.
# Human LATS2 catalytic domain, sequence (Q9NRM7 553-1088): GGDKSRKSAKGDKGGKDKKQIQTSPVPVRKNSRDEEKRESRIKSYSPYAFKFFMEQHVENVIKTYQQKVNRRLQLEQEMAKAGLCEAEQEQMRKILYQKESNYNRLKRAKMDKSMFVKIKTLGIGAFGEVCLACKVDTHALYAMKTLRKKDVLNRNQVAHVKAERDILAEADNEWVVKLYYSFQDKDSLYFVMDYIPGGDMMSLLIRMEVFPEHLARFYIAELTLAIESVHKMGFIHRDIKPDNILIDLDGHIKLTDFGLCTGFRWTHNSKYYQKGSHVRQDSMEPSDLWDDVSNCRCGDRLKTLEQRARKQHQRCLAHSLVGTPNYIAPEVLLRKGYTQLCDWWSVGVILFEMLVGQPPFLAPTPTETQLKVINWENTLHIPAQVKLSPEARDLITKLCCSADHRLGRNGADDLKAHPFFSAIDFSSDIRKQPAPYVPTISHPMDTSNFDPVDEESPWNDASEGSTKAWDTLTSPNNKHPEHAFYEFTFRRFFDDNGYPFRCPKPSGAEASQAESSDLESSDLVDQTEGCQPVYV
# Human LATS2 catalytic domain, sequence (Q7L9L4 whole entry partner, the tested form may be a part): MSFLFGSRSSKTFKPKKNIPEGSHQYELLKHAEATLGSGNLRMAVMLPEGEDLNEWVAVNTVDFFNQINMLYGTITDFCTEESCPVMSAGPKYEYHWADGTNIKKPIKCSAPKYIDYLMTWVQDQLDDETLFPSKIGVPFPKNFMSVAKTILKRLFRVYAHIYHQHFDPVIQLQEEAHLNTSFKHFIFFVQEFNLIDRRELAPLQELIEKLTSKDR
Ki [1] [nM],EC50 [2] [nM],Structure (SMILES)
0.14,630,"c1cc(-c2nc(N3CCC4(CC3)CCN(C3CCOC3)C4)c3ccncc3n2)ccn1 (racemic) [Compound 111, 2-(pyridin-4-yl)-4-(2-(tetrahydrofuran-3-yl)-2,8-diazaspiro[4.5]decan-8-yl)pyrido[3,4-d]pyrimidine]"
0.13,490,"FCC1CC2(CCN(c3nc(-c4ccncc4)nc4cnccc34)CC2)CN1 (racemic) [Example 216, 4-(3-(fluoromethyl)-2,8-diazaspiro[4.5]decan-8-yl)-2-(pyridin-4-yl)pyrido[3,4-d]pyrimidine]"
4.3,6800,"c1cc(-c2nc(N3CCC4(CC3)CC3COCCN3C4)c3ccncc3n2)ccn1 (racemic) [Example 218, 1-(2-(pyridin-4-yl)pyrido[3,4-d]pyrimidin-4-yl)hexahydrospiro[piperidine-4,7′-pyrrolo[2,1-c][1,4]oxazine]]"
0.039,940,"Cc1n[nH]cc1-c1nc(N2CCC3(CCN(C[C@@H](C)O)C3)CC2)c2ccncc2n1 (single isomer, unassigned) [Compound 145]"
0.45,570,"O[C@H]1CC[C@@H](N2CCC3(CCN(c4nc(-c5ccncc5)nc5cnccc45)CC3)C2)C1 (single isomer, unassigned) [Compound 169]"
0.93,1790,"O[C@@H]1COC[C@H]1N1CCC2(CCN(c3nc(-c4ccncc4)nc4cnccc34)CC2)C1 (single isomer, unassigned) [Compound 176]"
45,,"CN1CCC2(CCN(c3nc(-c4ccncc4)nc4cnc(C(F)(F)F)cc34)CC2)C1 [Example 209, 4-(2-methyl-2,8-diazaspiro[4.5]decan-8-yl)-2-(pyridin-4-yl)-6-(trifluoromethyl)pyrido[3,4-d]pyrimidine]"

# More lines, now with the values behind:
Structure (SMILES),Ki [1] [nM],EC50 [2] [nM]
"CN1CC2(CCN(c3nc(-c4ccncc4)nc4cnccc34)CC2)CC1CO (racemic) [Example 212, (2-methyl-8-(2-(pyridin-4-yl)pyrido[3,4-d]pyrimidin-4-yl)-2,8-diazaspiro[4.5]decan-3-yl)methanol]",0.41,2500
"COCC1CC2(CCN(c3nc(-c4ccncc4)nc4cnccc34)CC2)CN1C (racemic) [Example 217, 4-(3-(methoxymethyl)-2-methyl-2,8-diazaspiro[4.5]decan-8-yl)-2-(pyridin-4-yl)pyrido[3,4-d]pyrimidine]",0.35,780
"C[C@H](CO)N1CCC2(CCN(c3nc(-c4ccncc4)nc4cnccc34)CC2)C1 (single isomer, unassigned) [Compound 103]",0.58,740
"C[C@@H](CO)N1CCC2(CCN(c3nc(-c4ccncc4)nc4cnccc34)CC2)C1 (single isomer, unassigned) [Compound 104]",0.53,450
"Cc1n[nH]cc1-c1nc(N2CCC3(CCN(C[C@H](C)O)C3)CC2)c2ccncc2n1 (single isomer, unassigned) [Compound 144]",0.086,690
"O[C@@H]1CC[C@H](N2CCC3(CCN(c4nc(-c5ccncc5)nc5cnccc45)CC3)C2)C1 (single isomer, unassigned) [Compound 170]",0.29,380
"COc1cncc2nc(-c3ccncc3)nc(N3CCC4(CCN(C)C4)CC3)c12 [Compound 252, 5-Methoxy-4-(2-methyl-2,8-diazaspiro[4.5]decan-8-yl)-2-(pyridin-4-yl)pyrido[3,4-d]pyrimidine formate]",,130
"Cc1n[nH]cc1-c1nc(N2CCC3(CCN(CCS(=O)(=O)N(C)C)C3)CC2)c2ccncc2n1 [Example 210, N,N-dimethyl-2-(8-(2-(3-methyl-1H-pyrazol-4-yl)pyrido[3,4-d]pyrimidin-4-yl)-2,8-diazaspiro[4.5]decan-2-yl)ethanesulfonamide]",0.25,
"Cc1n[nH]cc1-c1nc(N2CCC3(CCNC3)CC2)c2ccnc(O)c2n1 [Example 237, 2-(3-methyl-1H-pyrazol-4-yl)-4-(2,8-diazaspiro[4.5]decan-8-yl)pyrido[3,4-d]pyrimidin-8-ol]",19,
